Experimental data: US20200054653A1, “ACEFAPC FOR THE TREATMENT OF ACETYLCHOLINE-DEPENDENT DISEASES” (LIPTHER, priority 2017, published 2020)
Read-outs that look alike come from different tables or passages of the source.

Columns and labels:
[1] = rat, cited from earlier work
[2] = biological target: microbial (Streptomyces chromofuscus) phospholipase D (Streptomyces chromofuscus, UniProt Q8KRU5); experiment: Acellular incubation of AceFaPC with phospholipase D, acetylcholine detected by mass spectrometry; type: biochemical; conditions: Tris-HCl pH 8, one hour at 37° C.
Sequence of microbial (Streptomyces chromofuscus) phospholipase D (Q8KRU5 47-556): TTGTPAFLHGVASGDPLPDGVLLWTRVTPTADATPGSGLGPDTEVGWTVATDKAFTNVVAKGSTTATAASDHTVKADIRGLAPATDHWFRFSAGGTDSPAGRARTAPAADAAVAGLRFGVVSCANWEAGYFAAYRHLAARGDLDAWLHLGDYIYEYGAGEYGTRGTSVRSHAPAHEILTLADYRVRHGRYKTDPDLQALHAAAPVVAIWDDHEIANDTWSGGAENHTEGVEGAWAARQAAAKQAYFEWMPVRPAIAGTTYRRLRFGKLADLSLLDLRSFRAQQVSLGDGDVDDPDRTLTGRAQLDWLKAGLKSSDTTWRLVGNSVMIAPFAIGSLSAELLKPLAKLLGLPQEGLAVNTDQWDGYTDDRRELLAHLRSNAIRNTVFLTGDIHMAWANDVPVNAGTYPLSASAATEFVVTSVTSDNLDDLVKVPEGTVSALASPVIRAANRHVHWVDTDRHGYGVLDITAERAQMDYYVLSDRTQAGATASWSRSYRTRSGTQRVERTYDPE
Protocol: Acellular incubation of AceFaPC was performed in the presence of a microbial (Streptomyces chromofuscus) phospholipase D in a Tris-HCl pH 8 (brain pH) buffer for one hour at 37° C. Following incubation, phospholipase D was destroyed by adding ethanol. After centrifugation, the aqueous ethanolic mixture was separated and evaporated to dryness. The residue was dissolved in the mixture 95% acetonitrile/5% ammonium formate and then filtered by centrifugation. Acetylcholine was detected in the solution by mass spectrometry. Acetylcholine was detected on the basis of both its molecular mass (146) and that of its main fragmentation product (87: majority ion corresponding to the radical CH3—COO—CH2—CH2—) (FIG. 2).
In these acellular experiments, two substrates were used considering the lowest unsaturation for acyl in the sn-2 position, namely the oleoyl radical (R2—COO—, FIG. 1): AceOIPC and the highest with the docosahexaenoyl radical: AceDoPC®. For AceOIPC, approximately 5% of the released choline was converted to acetylcholine. For AceDoPC®, this conversion reached 36%. The reasons for this difference are unknown at this stage of the experiment. […]

[3] = test system: reconstituted blood-brain barrier; conditions: compared with non-esterified DHA or PC-DHA; cited from earlier work
[4] = test system: brain lesions after ischemic stroke; conditions: injected into rats after ischemic stroke; cited from earlier work

| SMILES | radioactivity of AceDoPC in brain, % of the total injected ([1]; after 1 hour) | radioactivity of AceDoPC in brain, % of the total injected ([1]; after 24 hours) | radioactivity of AceDoPC in brain, % of the total injected ([1]; after 48 hours) | released choline converted to acetylcholine [2] | passage of a reconstituted blood-brain barrier [3] | spread of brain lesions [4] |
| --- | --- | --- | --- | --- | --- | --- |
| CC/C=C\C/C=C\C/C=C\C/C=C\C/C=C\C/C=C\CCC(=O)O[C@H](COC(C)=O)COP(=O)([O-])OCC[N+](C)(C)C [AceDoPC, 1-acetyl,2-docosahexaenoyl-phosphatidylcholine] | 80% | 30% | 10% | 36% | promoted | prevented the spread of brain lesions |
| CCCCCCCCC=CCCCCCCCC(=O)OC(COC(C)=O)COP(=O)([O-])OCC[N+](C)(C)C (stereo not shown) [AceOIPC] |  |  |  | approximately 5% |  |  |
